From patent US20230049330A1, “USE OF QX314 TO PREVENT SYMPATHO[…] ADMINISTRATION OF TRPV1 MODULATORS” (NEUCURES, INC., priority 2020, published 2023)

Test system: pigs
Assay: Intrapericardial administration of RTX alone or RTX in combination with QX-314 in anesthetized pigs; heart rate and blood pressure
Type: in vivo
Conditions: 15 mL, RTX 12.5 µg/mL, QX-314 10, 20, 30 or 40 µM where combined, aspirated after 20 minutes
Method: We evaluated the effects of the TRPV1 modulator RTX alone and in combination with QX-314 on cardiovascular function, specifically heart rate and blood pressure, in pigs. Animals were first sedated with telazol (4-8 mg/kg, intramuscular), intubated, and mechanically ventilated. General anesthesia was maintained with isoflurane (1-2%, inhaled). A 12-lead surface electrocardiogram and arterial blood pressure were continuously obtained using a GE Healthcare CardioLab system. Local anesthesia with 1% lidocaine was then administered to the left sternocostal angle before making a small incision. Percutaneous access into the pericardial space was obtained using a Touhy needle under fluoroscopic guidance (see FIG. 1). Contrast was used to visualize the advancement of the needle tip, and intrapericardial access was confirmed by passing a wire through the needle and inducing cardiac ectopy. After confirming access, a sheath was introduced into the pericardial space over the wire. A 12.5 µg/mL RTX solution was prepared by first creating a stock solution of 0.1 mg/mL by dissolving 0.5 mg of RTX powder in 2.5 mL of dimethyl sulfoxide and 2.5 mL of 0.9% sodium chloride, and then diluting the stock solution to 12.5 µg/mL by adding 1.87 mL of it to 13.13 mL of 0.9% sodium chloride. […]

## C=C(C)[C@]12C[C@@H](C)[C@@]34O[C@](Cc5ccccc5)(O[C@@H]1[C@@H]3C=C(COC(=O)Cc1ccc(O)c(OC)c1)C[C@]1(O)C(=O)C(C)=C[C@@H]41)O2 [RTX, resiniferatoxin]
  blood pressure change from baseline (FIG. 2B, FIG. 2C): significant increase
  heart rate change from baseline (FIG. 2A): significant increase
